Patent US5843889A, “Glycopeptide antibiotic derivatives” (Eli Lilly and Company, priority 1997, dated 1998)
In brackets after ≈: the same amount, converted by molar mass.

Legend:
Format in all cases: cell-based
[1] = system: Haemophilus influenzae RD; assay: MIC, standard broth micro-dilution assay
Description: (§1) The MIC's were determined using a standard broth micro-dilution assay.

[2] = system: Entercoccus faecalis 2041; assay: MIC, standard broth micro-dilution assay
Description: (§2) The formula I compounds have in vitro and in vivo activity against Gram-positive pathogenic bacteria. The MIC's were determined using a standard broth micro-dilution assay.

[3] = system: Entercoccus gallinarum 245; assay: MIC, standard broth micro-dilution assay
Description: as §2

[4] = system: Entercoccus faecium 180-1; assay: MIC, standard broth micro-dilution assay
Description: as §1

[5] = system: Entercoccus faecium 180; assay: MIC, standard broth micro-dilution assay
Description: as §1

[6] = system: Escherichia coli EC14; assay: MIC, standard broth micro-dilution assay
Description: as §1

[7] = system: Staphylococcus aureus 446; assay: MIC, standard broth micro-dilution assay
Description: as §1

[8] = system: Staphylococcus aureus 447; assay: MIC, standard broth micro-dilution assay
Description: as §1

[9] = system: Staphylococcus aureus 489; assay: MIC, standard broth micro-dilution assay
Description: as §1

[10] = system: Staphylococcus aureus SA1199A; assay: MIC, standard broth micro-dilution assay
Description: as §1

[11] = system: Staphylococcus aureus SA1199; assay: MIC, standard broth micro-dilution assay
Description: as §1

[12] = system: Staphylococcus aureus X400; assay: MIC, standard broth micro-dilution assay
Description: as §1

[13] = system: Staphylococcus aureus X778; assay: MIC, standard broth micro-dilution assay
Description: as §1

[14] = system: Staphylococcus epidermidis 270; assay: MIC, standard broth micro-dilution assay
Description: as §1

[15] = system: Staphylococcus haemolyticus 105; assay: MIC, standard broth micro-dilution assay
Description: as §1

[16] = system: Staphylococcus haemolyticus 415; assay: MIC, standard broth micro-dilution assay
Description: as §1

[17] = system: Staphylococcus aureus S13E
Description: as §1

[18] = system: Staphylococcus aureus SA1199B
Description: as §1

[19] = system: Entercoccus faecalis 276; assay: MIC, standard broth micro-dilution assay
Description: as §2

[20] = system: Staphylococcus aureus 491; assay: MIC, standard broth micro-dilution assay
Description: as §1

[21] = system: Streptococcus pneumoniae P1; assay: MIC, standard broth micro-dilution assay
Description: as §1

[22] = system: Pedicoccus acidilacti; assay: MIC, agar dilution on brain-heart infusion agar; settings: Pedioccccus acidilacti (mean of 10)
[23] = system: Pediococcus pentosaceus; assay: MIC, agar dilution on brain-heart infusion agar; settings: Pediococcus pentosaceus (mean of 2)
[24] = system: Leuconostoc lactis; assay: MIC, agar dilution on brain-heart infusion agar; settings: Leuconostoc lactis (mean of 2)
[25] = system: Leuconostoc mesenteroides; assay: MIC, agar dilution on brain-heart infusion agar; settings: Leuconostoc mesenteroides (mean of 4)
[26] = system: Lactobacillus confusus; assay: MIC, agar dilution on brain-heart infusion agar

SMILES	MIC [1] [µg/mL]	MIC [2] [µg/mL]	MIC [3] [µg/mL]	MIC [4] [µg/mL]	MIC [5] [µg/mL]	MIC [6] [µg/mL]	MIC [7] [µg/mL]	MIC [8] [µg/mL]	MIC [9] [µg/mL]	MIC [10] [µg/mL]	MIC [11] [µg/mL]	MIC [12] [µg/mL]	MIC [13] [µg/mL]	MIC [14] [µg/mL]	MIC [15] [µg/mL]	MIC [16] [µg/mL]	MIC [17] [µg/mL]	MIC [18] [µg/mL]	MIC [19] [µg/mL]	MIC [20] [µg/mL]	further results
CNC(CC(C)C)C(=O)NC1C(=O)NC(CC(N)=O)C(=O)NC2C(=O)NC3C(=O)NC(C(=O)NC(C(=O)O)c4cc(O)cc(O)c4-c4cc3ccc4O)C(OC3CC(C)(N)C(O)C(C)O3)c3ccc(c(Cl)c3)Oc3cc2cc(c3OC2OC(CO)C(O)C(O)C2OC2CC(C)(NCc3ccc4cc(C)ccc4c3)C(O)C(C)O2)Oc2ccc(cc2Cl)C1O (stereo not shown) [Compound 189]	> 64	≤ 0.06	1 (≈ 0.573 µM)	–	–	–	–	–	–	–	–	–	–	–	–	–	–	–	–	–	–
CNC(CC(C)C)C(=O)NC1C(=O)NC(CC(N)=O)C(=O)NC2C(=O)NC3C(=O)NC(C(=O)NC(C(=O)O)c4cc(O)cc(O)c4-c4cc3ccc4O)C(OC3CC(C)(N)C(O)C(C)O3)c3ccc(c(Cl)c3)Oc3cc2cc(c3OC2OC(CO)C(O)C(O)C2OC2CC(C)(NCc3c(O)ccc4ccccc34)C(O)C(C)O2)Oc2ccc(cc2Cl)C1O (stereo not shown) [Compound 44]	> 64	≤ 0.06	0.5 (≈ 0.286 µM)	≤ 0.06	8 (≈ 4.57 µM)	> 64	0.25 (≈ 0.143 µM)	1 (≈ 0.572 µM)	≤ 0.06	≤ 0.06	0.25 (≈ 0.143 µM)	≤ 0.06	≤ 0.06	0.5 (≈ 0.286 µM)	2 (≈ 1.14 µM)	4 (≈ 2.29 µM)	0.25 (≈ 0.143 µM)	0.25 (≈ 0.143 µM)	0.125 (≈ 0.0715 µM)	–	–
CNC(CC(C)C)C(=O)NC1C(=O)NC(CC(N)=O)C(=O)NC2C(=O)NC3C(=O)NC(C(=O)NC(C(=O)O)c4cc(O)cc(O)c4-c4cc3ccc4O)C(OC3CC(C)(N)C(O)C(C)O3)c3ccc(c(Cl)c3)Oc3cc2cc(c3OC2OC(CO)C(O)C(O)C2OC2CC(C)(NCC3CC=CCC3)C(O)C(C)O2)Oc2ccc(cc2Cl)C1O (stereo not shown) [Compound 47, 3,4 cyclohexenylmethyl]	> 64	≤ 0.06	16 (≈ 9.49 µM)	≤ 0.06	2 (≈ 1.19 µM)	> 64	0.125 (≈ 0.0741 µM)	2 (≈ 1.19 µM)	≤ 0.06	0.25 (≈ 0.148 µM)	0.5 (≈ 0.296 µM)	≤ 0.06	≤ 0.06	1 (≈ 0.593 µM)	4 (≈ 2.37 µM)	16 (≈ 9.49 µM)	≤ 0.06	0.25 (≈ 0.148 µM)	≤ 0.06	0.5 (≈ 0.296 µM)	MIC [21]: ≤ 0.06 µg/mL
CNC(CC(C)C)C(=O)NC1C(=O)NC(CC(N)=O)C(=O)NC2C(=O)NC3C(=O)NC(C(=O)NC(C(=O)O)c4cc(O)cc(O)c4-c4cc3ccc4O)C(OC3CC(C)(N)C(O)C(C)O3)c3ccc(c(Cl)c3)Oc3cc2cc(c3OC2OC(CO)C(O)C(O)C2OC2CC(C)(NCc3ccc(C(O)c4ccccc4)cc3)C(O)C(C)O2)Oc2ccc(cc2Cl)C1O (stereo not drawn) [Compound 109, 4-[alpha-hydroxybenzyl]benzyl]	32 (≈ 17.9 µM)	≤ 0.06	≤ 0.06	≤ 0.06	0.25 (≈ 0.14 µM)	–	1 (≈ 0.559 µM)	1 (≈ 0.559 µM)	≤ 0.06	≤ 0.06	≤ 0.06	≤ 0.06	≤ 0.06	0.25 (≈ 0.14 µM)	1 (≈ 0.559 µM)	4 (≈ 2.24 µM)	0.25 (≈ 0.14 µM)	0.5 (≈ 0.28 µM)	≤ 0.06	0.25 (≈ 0.14 µM)	–
CNC(CC(C)C)C(=O)NC1C(=O)NC(CC(N)=O)C(=O)NC2C(=O)NC3C(=O)NC(C(=O)NC(C(=O)O)c4cc(O)cc(O)c4-c4cc3ccc4O)C(OC3CC(C)(N)C(O)C(C)O3)c3ccc(c(Cl)c3)Oc3cc2cc(c3OC2OC(CO)C(O)C(O)C2OC2CC(C)(NCc3ccc(C(c4ccccc4)c4ccccc4)cc3)C(O)C(C)O2)Oc2ccc(cc2Cl)C1O (stereo not shown) [Compound 46, 4-diphenylmethylbenzyl]	> 64	1 (≈ 0.541 µM)	0.25 (≈ 0.135 µM)	≤ 0.06	0.5 (≈ 0.27 µM)	> 64	1 (≈ 0.541 µM)	2 (≈ 1.08 µM)	1 (≈ 0.541 µM)	0.5 (≈ 0.27 µM)	2 (≈ 1.08 µM)	2 (≈ 1.08 µM)	2 (≈ 1.08 µM)	2 (≈ 1.08 µM)	2 (≈ 1.08 µM)	2 (≈ 1.08 µM)	2 (≈ 1.08 µM)	2 (≈ 1.08 µM)	0.5 (≈ 0.27 µM)	2 (≈ 1.08 µM)	MIC [21]: ≤ 0.06 µg/mL
CNC(CC(C)C)C(=O)NC1C(=O)NC(CC(N)=O)C(=O)NC2C(=O)NC3C(=O)NC(C(=O)NC(C(=O)O)c4cc(O)cc(O)c4-c4cc3ccc4O)C(OC3CC(C)(N)C(O)C(C)O3)c3ccc(c(Cl)c3)Oc3cc2cc(c3OC2OC(CO)C(O)C(O)C2OC2CC(C)(NCc3ccc(-c4ccccc4C)cc3)C(O)C(C)O2)Oc2ccc(cc2Cl)C1O (stereo not shown) [Compound 209]	–	≤ 0.06	1 (≈ 0.564 µM)	–	–	–	–	–	–	–	–	–	–	0.125 (≈ 0.0705 µM)	–	–	–	–	–	–	–
CNC(CC(C)C)C(=O)NC1C(=O)NC(CC(N)=O)C(=O)NC2C(=O)NC3C(=O)NC(C(=O)NC(C(=O)O)c4cc(O)cc(O)c4-c4cc3ccc4O)C(OC3CC(C)(N)C(O)C(C)O3)c3ccc(c(Cl)c3)Oc3cc2cc(c3OC2OC(CO)C(O)C(O)C2OC2CC(C)(NCc3ccc(Cc4ccccc4)cc3)C(O)C(C)O2)Oc2ccc(cc2Cl)C1O (stereo not shown) [Compound 50, 4-benzylbenzyl]	> 64	≤ 0.06	1 (≈ 0.564 µM)	≤ 0.06	0.25 (≈ 0.141 µM)	> 64	0.5 (≈ 0.282 µM)	0.5 (≈ 0.282 µM)	≤ 0.06	≤ 0.06	1 (≈ 0.564 µM)	–	–	0.5 (≈ 0.282 µM)	0.5 (≈ 0.282 µM)	1 (≈ 0.564 µM)	–	2 (≈ 1.13 µM)	0.25 (≈ 0.141 µM)	0.5 (≈ 0.282 µM)	MIC [21]: ≤ 0.06 µg/mL; MIC [22]: 51 µg/mL (≈ 28.8 µM); MIC [23]: 64 µg/mL (≈ 36.1 µM); MIC [24]: 64 µg/mL (≈ 36.1 µM); MIC [25]: 64 µg/mL (≈ 36.1 µM); MIC [26]: 64 µg/mL (≈ 36.1 µM)
CNC(CC(C)C)C(=O)NC1C(=O)NC(CC(N)=O)C(=O)NC2C(=O)NC3C(=O)NC(C(=O)NC(C(=O)O)c4cc(O)cc(O)c4-c4cc3ccc4O)C(OC3CC(C)(N)C(O)C(C)O3)c3ccc(c(Cl)c3)Oc3cc2cc(c3OC2OC(CO)C(O)C(O)C2OC2CC(C)(NCc3ccc(NC(=O)c4cccc(F)c4)cc3)C(O)C(C)O2)Oc2ccc(cc2Cl)C1O (stereo not shown) [Compound 194, 4-[(3-fluorobenzoyl)amino]benzyl]	32 (≈ 17.6 µM)	≤ 0.06	2 (≈ 1.1 µM)	–	–	–	–	–	–	–	–	–	–	–	–	–	–	–	–	–	–
